This passage reports % of control and % of inhibition results from ChEMBL document CHEMBL5465560, “Selectivity Literature for EUbOPEN Chemogenomic Library” (2024).

In experiment [1] the target is T1, Serine/threonine-protein kinase DCLK3 (Homo sapiens) (UniProt Q9C098).
T1 sequence (whole entry): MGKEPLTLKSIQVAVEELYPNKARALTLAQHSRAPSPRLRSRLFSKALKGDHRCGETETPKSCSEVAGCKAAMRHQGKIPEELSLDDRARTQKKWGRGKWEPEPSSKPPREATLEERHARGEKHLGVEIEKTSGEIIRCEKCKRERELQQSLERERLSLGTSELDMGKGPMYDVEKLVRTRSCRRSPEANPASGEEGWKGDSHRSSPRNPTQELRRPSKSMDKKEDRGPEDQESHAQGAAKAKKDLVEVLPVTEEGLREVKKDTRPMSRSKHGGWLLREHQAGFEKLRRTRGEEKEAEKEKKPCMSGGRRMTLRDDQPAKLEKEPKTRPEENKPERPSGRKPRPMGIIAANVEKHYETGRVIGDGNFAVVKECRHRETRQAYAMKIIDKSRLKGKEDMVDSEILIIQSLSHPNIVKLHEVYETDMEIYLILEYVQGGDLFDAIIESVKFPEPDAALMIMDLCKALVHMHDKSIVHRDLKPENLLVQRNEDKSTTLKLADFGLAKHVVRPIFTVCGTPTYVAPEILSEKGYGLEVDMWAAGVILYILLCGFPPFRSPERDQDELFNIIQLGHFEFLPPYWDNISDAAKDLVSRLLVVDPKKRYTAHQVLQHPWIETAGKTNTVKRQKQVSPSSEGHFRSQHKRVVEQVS
Kind of experiment: Selectivity interaction (KinomeScan (DiscoverX)) EUB0000607a DCLK3. As to conditions: at 10 µM.

For experiment [2], the target named is T2, Protein kinase C epsilon type (Homo sapiens) (UniProt Q02156).
T2 sequence (whole entry): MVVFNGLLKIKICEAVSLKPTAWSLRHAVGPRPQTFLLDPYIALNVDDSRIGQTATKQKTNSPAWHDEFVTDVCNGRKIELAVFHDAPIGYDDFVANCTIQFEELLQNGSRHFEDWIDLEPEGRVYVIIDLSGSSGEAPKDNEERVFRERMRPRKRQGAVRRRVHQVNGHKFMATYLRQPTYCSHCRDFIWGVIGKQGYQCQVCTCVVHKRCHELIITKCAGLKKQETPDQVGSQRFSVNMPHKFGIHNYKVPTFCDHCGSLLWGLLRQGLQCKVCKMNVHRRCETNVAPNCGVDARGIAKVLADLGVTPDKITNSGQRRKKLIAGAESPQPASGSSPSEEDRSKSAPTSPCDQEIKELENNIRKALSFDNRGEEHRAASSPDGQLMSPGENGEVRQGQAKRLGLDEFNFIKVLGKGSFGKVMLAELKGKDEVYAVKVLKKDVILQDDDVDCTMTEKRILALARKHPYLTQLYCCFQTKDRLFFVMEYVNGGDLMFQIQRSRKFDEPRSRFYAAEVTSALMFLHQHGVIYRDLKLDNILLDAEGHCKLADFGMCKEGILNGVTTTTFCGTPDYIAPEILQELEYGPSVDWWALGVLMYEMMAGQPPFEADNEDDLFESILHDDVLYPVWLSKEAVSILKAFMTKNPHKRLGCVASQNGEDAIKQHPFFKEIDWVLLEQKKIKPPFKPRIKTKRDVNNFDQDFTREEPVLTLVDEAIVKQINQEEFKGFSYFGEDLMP
Kind of experiment: Selectivity interaction (KinomeScan (DiscoverX)) EUB0000655a PRKCE. Particulars: at 10 µM.

Experiment [3] concerns the target Ribosomal protein S6 kinase alpha-5 (Homo sapiens) (UniProt O75582). Kind of experiment: Selectivity interaction (ActivX KiNativ screen (ex vivo kinase selectivity in human PBMCs)) EUB0001619a RPS6KA5. It counts as cell-based. Particulars: PBMC, at 1 µM.
In experiment [4] the target is Testis-specific serine/threonine-protein kinase 4 (Homo sapiens) (UniProt Q6SA08). Kind of experiment: Selectivity interaction (Kinase panel (Eurofins)) EUB0001564a TSSK4. As to conditions: at 1 µM.
Experiment [5] concerns the target Mitogen-activated protein kinase kinase kinase kinase 1 (Homo sapiens) (UniProt Q92918). Kind of experiment: Selectivity interaction (KinomeScan (DiscoverX)) EUB0001049a MAP4K1. As to conditions: at 1 µM.
In experiment [6] the target is T3, Mitogen-activated protein kinase 15 (Homo sapiens) (UniProt Q8TD08).
T3 sequence (whole entry): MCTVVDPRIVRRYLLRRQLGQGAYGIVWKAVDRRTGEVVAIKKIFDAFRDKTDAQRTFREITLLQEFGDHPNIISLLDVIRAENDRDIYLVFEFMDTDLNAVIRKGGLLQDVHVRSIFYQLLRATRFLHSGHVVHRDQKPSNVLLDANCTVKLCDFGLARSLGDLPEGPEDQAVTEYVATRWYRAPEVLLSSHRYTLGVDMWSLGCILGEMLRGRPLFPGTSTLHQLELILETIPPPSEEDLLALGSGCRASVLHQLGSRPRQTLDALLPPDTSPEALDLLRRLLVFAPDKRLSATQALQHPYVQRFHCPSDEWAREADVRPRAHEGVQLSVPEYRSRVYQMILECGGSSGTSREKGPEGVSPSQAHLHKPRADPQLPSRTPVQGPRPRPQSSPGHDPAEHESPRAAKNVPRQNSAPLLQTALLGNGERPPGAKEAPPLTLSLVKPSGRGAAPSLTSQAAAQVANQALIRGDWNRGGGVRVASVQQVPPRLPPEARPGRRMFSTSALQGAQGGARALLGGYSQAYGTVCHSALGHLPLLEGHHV
Kind of experiment: Selectivity interaction (KinomeScan (DiscoverX)) EUB0001049a MAPK15. As to conditions: at 1 µM.

Experiment [7] addresses Serine/threonine-protein kinase MRCK beta (Homo sapiens) (UniProt Q9Y5S2). Kind of experiment: Selectivity interaction (ProQinase) EUB0000171b CDC42BPB.
Experiment [8] has as its target Mitogen-activated protein kinase kinase kinase 14 (Homo sapiens) (UniProt Q99558). Kind of experiment: Selectivity interaction (ProQinase) EUB0000171b MAP3K14.
In experiment [9] the target is T4, Serine/threonine-protein kinase Nek2 (Homo sapiens) (UniProt P51955).
T4 sequence (whole entry): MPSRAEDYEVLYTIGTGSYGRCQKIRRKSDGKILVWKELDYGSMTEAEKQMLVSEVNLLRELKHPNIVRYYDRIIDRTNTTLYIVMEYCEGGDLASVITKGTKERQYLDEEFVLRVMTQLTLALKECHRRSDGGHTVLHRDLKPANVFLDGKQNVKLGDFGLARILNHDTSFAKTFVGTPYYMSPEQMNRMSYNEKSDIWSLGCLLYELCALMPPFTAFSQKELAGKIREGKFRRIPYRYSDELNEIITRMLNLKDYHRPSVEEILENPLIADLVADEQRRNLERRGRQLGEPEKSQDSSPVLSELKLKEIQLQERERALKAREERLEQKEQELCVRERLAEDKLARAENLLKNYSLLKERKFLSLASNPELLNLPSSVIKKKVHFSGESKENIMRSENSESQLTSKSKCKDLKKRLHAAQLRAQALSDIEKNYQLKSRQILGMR
Kind of experiment: Selectivity interaction (KinomeScan (DiscoverX)) EUB0000092b NEK2. Particulars: at 10 µM.

Experiment [10] concerns the target Serine/threonine-protein kinase MRCK gamma (Homo sapiens) (UniProt Q6DT37). Kind of experiment: Selectivity interaction (KinomeScan (DiscoverX)) EUB0000045b CDC42BPG.

Mitogen-activated protein kinase kinase kinase 14 (Homo sapiens), sequence (Q99558 whole entry, looked up): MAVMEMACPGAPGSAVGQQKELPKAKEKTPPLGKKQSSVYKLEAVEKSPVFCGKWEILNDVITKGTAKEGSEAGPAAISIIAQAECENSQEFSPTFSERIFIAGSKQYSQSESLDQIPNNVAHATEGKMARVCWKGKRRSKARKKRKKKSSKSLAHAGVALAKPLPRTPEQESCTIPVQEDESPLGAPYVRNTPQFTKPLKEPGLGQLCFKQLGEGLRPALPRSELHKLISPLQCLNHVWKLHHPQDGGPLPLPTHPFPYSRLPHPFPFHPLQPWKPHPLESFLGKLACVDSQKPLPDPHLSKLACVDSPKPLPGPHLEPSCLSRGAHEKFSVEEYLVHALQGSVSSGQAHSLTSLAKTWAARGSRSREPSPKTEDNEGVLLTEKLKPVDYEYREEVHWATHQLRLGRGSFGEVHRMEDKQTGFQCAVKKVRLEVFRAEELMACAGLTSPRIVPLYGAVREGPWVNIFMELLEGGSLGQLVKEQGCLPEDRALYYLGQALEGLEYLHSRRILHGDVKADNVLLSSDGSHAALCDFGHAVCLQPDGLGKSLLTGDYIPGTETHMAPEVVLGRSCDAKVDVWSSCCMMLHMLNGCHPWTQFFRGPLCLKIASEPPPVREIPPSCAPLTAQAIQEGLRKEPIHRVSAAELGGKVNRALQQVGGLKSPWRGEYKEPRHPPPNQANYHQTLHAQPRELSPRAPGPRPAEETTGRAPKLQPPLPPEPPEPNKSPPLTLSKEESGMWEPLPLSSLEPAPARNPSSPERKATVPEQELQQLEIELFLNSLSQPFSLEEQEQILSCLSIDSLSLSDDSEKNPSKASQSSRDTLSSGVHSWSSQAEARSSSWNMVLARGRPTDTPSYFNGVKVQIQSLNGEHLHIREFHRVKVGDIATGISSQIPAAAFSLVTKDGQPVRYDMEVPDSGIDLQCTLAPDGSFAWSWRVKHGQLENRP
Serine/threonine-protein kinase MRCK beta (Homo sapiens), sequence (Q9Y5S2 whole entry): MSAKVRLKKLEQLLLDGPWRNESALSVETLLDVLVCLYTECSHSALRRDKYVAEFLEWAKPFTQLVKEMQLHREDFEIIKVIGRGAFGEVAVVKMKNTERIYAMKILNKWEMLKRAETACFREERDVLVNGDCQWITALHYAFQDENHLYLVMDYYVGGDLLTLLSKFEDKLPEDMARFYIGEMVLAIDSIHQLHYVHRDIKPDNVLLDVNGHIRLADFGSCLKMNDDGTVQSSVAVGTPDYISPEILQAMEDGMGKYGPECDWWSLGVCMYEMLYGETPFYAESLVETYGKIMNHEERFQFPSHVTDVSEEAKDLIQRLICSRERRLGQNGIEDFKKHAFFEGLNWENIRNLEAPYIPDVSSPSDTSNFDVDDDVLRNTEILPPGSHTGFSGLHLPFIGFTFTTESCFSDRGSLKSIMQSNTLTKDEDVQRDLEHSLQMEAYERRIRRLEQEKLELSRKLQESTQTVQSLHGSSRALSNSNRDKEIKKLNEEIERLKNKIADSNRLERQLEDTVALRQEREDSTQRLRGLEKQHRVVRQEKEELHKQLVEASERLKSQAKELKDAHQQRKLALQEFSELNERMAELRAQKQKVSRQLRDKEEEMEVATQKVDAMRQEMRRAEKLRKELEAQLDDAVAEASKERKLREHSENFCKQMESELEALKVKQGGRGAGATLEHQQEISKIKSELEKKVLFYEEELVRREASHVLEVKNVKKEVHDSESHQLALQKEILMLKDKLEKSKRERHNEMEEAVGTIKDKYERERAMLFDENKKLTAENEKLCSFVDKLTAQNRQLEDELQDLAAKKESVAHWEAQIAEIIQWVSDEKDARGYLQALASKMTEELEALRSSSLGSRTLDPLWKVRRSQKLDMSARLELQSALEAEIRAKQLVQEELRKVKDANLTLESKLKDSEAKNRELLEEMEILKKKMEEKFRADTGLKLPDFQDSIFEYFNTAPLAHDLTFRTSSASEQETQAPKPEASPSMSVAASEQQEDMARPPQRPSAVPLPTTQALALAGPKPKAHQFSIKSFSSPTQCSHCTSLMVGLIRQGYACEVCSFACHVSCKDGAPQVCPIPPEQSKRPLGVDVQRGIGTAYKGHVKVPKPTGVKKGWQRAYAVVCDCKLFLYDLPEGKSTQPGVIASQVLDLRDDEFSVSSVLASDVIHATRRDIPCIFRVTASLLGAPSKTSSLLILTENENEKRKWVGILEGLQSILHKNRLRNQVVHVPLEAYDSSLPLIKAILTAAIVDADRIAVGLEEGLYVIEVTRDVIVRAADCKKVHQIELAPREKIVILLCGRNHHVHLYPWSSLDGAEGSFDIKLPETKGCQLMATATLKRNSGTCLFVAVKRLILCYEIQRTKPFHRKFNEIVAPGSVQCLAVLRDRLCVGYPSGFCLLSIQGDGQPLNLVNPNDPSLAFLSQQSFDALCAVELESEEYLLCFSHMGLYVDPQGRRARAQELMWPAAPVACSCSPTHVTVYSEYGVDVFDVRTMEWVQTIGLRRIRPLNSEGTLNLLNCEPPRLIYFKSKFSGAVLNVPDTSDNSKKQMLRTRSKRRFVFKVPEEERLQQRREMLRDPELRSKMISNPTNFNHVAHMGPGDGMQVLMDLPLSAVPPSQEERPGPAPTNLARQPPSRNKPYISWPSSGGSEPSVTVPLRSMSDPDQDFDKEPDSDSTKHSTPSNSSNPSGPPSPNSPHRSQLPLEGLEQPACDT
Serine/threonine-protein kinase MRCK gamma (Homo sapiens), sequence (Q6DT37 whole entry): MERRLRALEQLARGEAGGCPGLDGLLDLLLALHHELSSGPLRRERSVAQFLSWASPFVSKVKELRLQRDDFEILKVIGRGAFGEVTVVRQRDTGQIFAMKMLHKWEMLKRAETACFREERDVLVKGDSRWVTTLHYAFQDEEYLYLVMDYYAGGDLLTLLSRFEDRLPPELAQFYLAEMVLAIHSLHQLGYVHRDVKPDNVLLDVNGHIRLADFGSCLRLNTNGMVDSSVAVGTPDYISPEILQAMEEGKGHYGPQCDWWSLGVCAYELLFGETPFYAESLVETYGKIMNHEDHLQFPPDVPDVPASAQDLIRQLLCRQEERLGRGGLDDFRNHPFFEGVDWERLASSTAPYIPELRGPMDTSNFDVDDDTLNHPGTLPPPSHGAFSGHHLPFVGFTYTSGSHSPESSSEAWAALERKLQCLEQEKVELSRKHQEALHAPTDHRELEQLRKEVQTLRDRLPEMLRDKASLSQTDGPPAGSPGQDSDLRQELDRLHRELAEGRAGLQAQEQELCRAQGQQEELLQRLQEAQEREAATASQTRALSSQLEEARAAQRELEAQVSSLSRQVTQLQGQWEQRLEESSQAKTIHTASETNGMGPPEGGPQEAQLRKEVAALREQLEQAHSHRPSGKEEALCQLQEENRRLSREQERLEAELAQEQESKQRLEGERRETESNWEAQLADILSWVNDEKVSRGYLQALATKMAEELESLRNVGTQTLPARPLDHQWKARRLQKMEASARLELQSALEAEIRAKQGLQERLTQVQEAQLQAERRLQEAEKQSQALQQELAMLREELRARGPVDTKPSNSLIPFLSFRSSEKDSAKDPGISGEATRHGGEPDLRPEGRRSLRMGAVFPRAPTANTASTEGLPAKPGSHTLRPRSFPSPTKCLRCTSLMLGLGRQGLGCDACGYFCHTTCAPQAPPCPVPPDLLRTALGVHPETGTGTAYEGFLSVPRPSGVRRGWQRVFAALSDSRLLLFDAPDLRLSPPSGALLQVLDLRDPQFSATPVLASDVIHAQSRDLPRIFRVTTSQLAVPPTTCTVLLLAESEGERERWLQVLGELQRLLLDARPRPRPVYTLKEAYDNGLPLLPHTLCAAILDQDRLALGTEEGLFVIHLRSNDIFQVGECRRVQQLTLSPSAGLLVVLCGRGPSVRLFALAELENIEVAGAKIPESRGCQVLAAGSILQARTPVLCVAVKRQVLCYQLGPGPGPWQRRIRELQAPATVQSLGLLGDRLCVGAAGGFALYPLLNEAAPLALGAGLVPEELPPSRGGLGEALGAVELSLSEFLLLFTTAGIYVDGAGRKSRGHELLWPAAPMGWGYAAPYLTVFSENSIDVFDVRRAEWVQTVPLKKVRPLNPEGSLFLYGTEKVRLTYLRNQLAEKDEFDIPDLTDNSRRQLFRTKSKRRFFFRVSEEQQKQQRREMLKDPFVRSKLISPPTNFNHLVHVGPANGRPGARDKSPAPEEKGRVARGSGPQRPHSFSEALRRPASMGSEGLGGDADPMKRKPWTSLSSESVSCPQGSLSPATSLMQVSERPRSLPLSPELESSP
Mitogen-activated protein kinase kinase kinase kinase 1 (Homo sapiens), sequence (Q92918 whole entry, looked up): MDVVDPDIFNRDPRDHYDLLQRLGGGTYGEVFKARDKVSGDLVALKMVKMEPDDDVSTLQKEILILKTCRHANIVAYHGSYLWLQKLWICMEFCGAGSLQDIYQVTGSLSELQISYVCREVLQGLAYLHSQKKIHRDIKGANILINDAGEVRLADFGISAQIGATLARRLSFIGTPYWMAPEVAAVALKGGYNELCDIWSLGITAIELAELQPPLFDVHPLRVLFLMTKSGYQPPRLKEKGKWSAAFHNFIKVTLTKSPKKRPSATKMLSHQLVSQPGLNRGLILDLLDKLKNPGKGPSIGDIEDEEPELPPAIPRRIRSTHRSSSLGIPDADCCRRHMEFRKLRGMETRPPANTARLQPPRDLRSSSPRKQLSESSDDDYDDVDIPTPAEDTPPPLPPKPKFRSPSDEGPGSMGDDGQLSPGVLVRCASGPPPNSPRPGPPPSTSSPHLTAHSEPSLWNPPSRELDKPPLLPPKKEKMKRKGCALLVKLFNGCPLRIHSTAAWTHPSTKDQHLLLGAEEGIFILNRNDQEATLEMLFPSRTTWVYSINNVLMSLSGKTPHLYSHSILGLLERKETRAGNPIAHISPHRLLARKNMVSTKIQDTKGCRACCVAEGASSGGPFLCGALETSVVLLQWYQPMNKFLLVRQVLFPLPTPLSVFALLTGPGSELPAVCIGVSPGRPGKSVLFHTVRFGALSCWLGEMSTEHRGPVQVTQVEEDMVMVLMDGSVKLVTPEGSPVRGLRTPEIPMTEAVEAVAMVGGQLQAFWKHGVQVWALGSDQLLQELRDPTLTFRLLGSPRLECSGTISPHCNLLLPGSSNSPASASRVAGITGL

In turn, `CNC(=O)Nc1ccc(-c2nc(N3CC4CCC(C3)O4)c3cnn(C4CCC5(CC4)OCCO5)c3n2)cc1` showed a % of control in experiment [1] of 100%.

For the compound `CN(C)CCOc1ccc(-c2nc(-c3ccncc3)c(-c3ccc4c(c3)CC/C4=N\O)[nH]2)cc1`, the % of control in [2] stood at 100%.

As for `N#Cc1cccc(-c2c[nH]c3ncnc(N4CCOCC4)c23)c1`, the % of inhibition in experiment [3] came to 20%.

Turning to `CC[C@@H](Nc1c(C#N)c(-c2ccc(-c3cccc(C)c3F)cc2)nc2cnccc12)C(=O)O` [BAY-091], in [4], the % of inhibition was determined as 24%. On to `COc1cc(Nc2nc(C)cc(-c3cnn4nc(OC)ccc34)n2)cc(C(F)(F)F)c1`, for which the % of control was found to be 86% in experiment [5] and 96% in experiment [6]. `C=CC(=O)Nc1cccc(C(=O)Nc2ccc(Nc3cc(-c4[nH]c(SC)nc4C)ccn3)cc2)c1`: the % of control in experiment [7] (at 1 µM) is 89%; in experiment [7] (at 5 µM), 82%; in experiment [8] (at 1 µM), 91%; in experiment [8] (at 5 µM), 87%. Take `CCC(=O)N1CCN(c2ccc(-n3c(=O)ccc4cnc5ccc(-c6cnc7ccccc7c6)cc5c43)cc2C(F)(F)F)CC1`: the % of control in experiment [9] is 90%. Take `C=CC(=O)Nc1cc(-n2c(=O)ccc3cnc4ccc(-c5ccc(NS(C)(=O)=O)cc5)cc4c32)ccc1C`: the % of control was found to be 100% in experiment [10] (at 1 µM) and 90% in [10] (at 10 µM).
